{"source": "patent US5026699A", "about": "“Use of 5,11-dihydro-6H-pyrido[2,3-b][1,4]-benzodiazepin-6-ones substituted in the 11-position for treating bradycardia and bradyarrhythmia in human and veterinary medicine” (Dr. Karl Thomae GmbH, priority 1988, dated 1991)", "key": {"[1]": {"tested_on": "rise in blood pressure caused by McN-A-343 (M1)", "experiment": "M1/M2 selectivity in the rat: reduction of rise in blood pressure caused by McN-A-343", "type": "in vivo", "conditions": "iv, 5 min, male THOM rats, i.v., dose reducing rise in blood pressure (M1) caused by 0.3 mg/kg McN-A-343 by 50%, read-out: -log ED50, Blood pressure (converted)", "protocol": "(§1) The dosage of the substances which reduced either the vagal bradycardia (M2) or the rise in blood pressure (M1) by 50% was determined graphically. For the results see Table II."}, "[2]": {"tested_on": "acetylcholine effect on heart rate", "experiment": "Inhibition of the effect of acetylcholine on heart rate in guinea pigs", "type": "in vivo, guinea pig", "conditions": "Cavia porcellus, 5 min; read-out: -log ED50, Heart (converted)", "protocol": "(§2) 5 minutes after the administration of the test substance, 10 microgram/kg of acetylcholine were simultaneously injected intravenously and intra-arterially into anesthetized guinea pigs. The heart rate was recorded directly by extracorporeal derivation of the ECG, the expiration resistance according to Konzett-Rossler and contraction of the exposed bladder. In order to determine the inhibition of the acetylcholine activity on the organs under investigation, dosage/activity curves were recorded and from them -log ED50 values were determined."}, "[3]": {"tested_on": "acetylcholine effect on bladder contraction", "experiment": "Inhibition of the effect of acetylcholine on the bladder in guinea pigs", "type": "in vivo, guinea pig", "conditions": "Cavia porcellus, 5 min; read-out: -log ED50, Bladder (converted)", "protocol": "as §2"}, "vagal bradycardia (M2)": {"tested_on": "vagal bradycardia (M2)", "experiment": "M1/M2 selectivity in the rat: reduction of bradycardia caused by vagus stimulation", "type": "in vivo", "conditions": "iv, 5 min, male THOM rats, i.v., dose reducing vagal bradycardia (M2) by 50%, 5 minutes after injection, read-out: -log ED50, Heart (converted)", "protocol": "as §1"}, "[4]": {"tested_on": "secretion of saliva initiated by pilocarpine", "experiment": "Salivation-inhibiting effect in the rat (pilocarpine-induced)", "type": "in vivo", "conditions": "iv, male THOM rats anesthetized with urethane, i.v., dose reducing volume of saliva by 50%, 2 mg/kg s.c. pilocarpine, read-out: -log ED50, Salivation inhibition (converted)", "protocol": "The secretion of saliva was initiated by subcutaneous administration of 2 mg/kg of pilocarpine. The saliva was absorbed with blotting paper and the surface area covered was measured every 5 minutes by planimetry. The dosage of the substance which reduced the volume of saliva by 50% was determined graphically. For the results see Table II."}, "[5]": {"tested_on": "acetylcholine effect on bronchi (expiration resistance)", "experiment": "Inhibition of the effect of acetylcholine on bronchi in guinea pigs", "type": "in vivo, guinea pig", "conditions": "Cavia porcellus, 5 min; read-out: -log ED50, Bronchi (converted)", "protocol": "as §2"}, "[6]": {"biological_target": "T1, muscarinic receptors, submandibular gland (Rattus norvegicus, UniProt P08483)", "T1 construct": "All the organs were then homogenized in a Potter apparatus; from tissue; host or cells: submandibular gland of male Sprague-Dawley rats, homogenate", "T1 sequence (P08483 whole entry)": "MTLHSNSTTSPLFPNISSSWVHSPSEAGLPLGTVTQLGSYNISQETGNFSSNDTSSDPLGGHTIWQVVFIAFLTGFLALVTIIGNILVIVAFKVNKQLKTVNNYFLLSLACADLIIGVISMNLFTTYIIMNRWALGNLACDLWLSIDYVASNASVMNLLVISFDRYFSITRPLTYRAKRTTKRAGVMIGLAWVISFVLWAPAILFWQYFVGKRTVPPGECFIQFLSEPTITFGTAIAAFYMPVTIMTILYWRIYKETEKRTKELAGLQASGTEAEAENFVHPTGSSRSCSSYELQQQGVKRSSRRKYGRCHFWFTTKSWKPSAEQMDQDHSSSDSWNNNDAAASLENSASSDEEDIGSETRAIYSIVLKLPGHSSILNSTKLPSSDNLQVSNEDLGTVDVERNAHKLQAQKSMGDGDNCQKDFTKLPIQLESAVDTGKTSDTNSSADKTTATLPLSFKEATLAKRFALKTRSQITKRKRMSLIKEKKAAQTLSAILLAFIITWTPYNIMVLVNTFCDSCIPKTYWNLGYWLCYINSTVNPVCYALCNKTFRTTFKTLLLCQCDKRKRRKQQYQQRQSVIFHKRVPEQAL", "experiment": "Receptor binding test in vitro, 3H-NMS displacement, submandibular gland homogenate", "conditions": "rat submandibular gland homogenate 1:400; 0.3 nanomolar 3H-NMS; 30° C., 45 minutes; read-out: Receptor Binding Tests IC50, Submandibular gland", "protocol": "(§3) The organs were donated by male Sprague-Dawley rats weighing 180-220 g. After the heart and submandular gland and cerebral cortex had been removed, all other steps were carried out in ice cold Hepes HCl buffer (pH 7.4; 100 millimolar NaCl, 10 millimolar MgCl2). The whole heart was cut up with scissors. All the organs were then homogenized in a Potter apparatus.\n(§4) For the binding test the homogenized organs were diluted as follows:\n(§5) The homogenized organs were incubated at a certain concentration of the radioligand and at a series of concentrations of the non-radioactive test substances in an Eppendorf centrifuge tube at 30° C. Incubation lasted 45 minutes. The radioligand used was 0.3 nanomolar ^3 H--N- methylscopolamine (^3 H-NMS). Incubation was ended by the addition of ice cold buffer followed by vacuum filtration. The filters were rinsed with cold buffer and their radioactivity was determined. It represents the sum of specific and non-specific binding of ^3 H-NMS. The proportion of non-specific binding was defined as the radioactivity which was bound in the presence of 1 micromolar quinuclidinylbenzylate. Each measurement was taken four times. The IC50 values of the non-labelled test substances were determined graphically. They represent that concentration of test substance at which the specific binding of ^3 H-NMS to the muscarinic receptors in the various organs was inhibited by 50%."}, "[7]": {"biological_target": "muscarinic receptors, cerebral cortex", "experiment": "Receptor binding test in vitro, 3H-NMS displacement, cerebral cortex homogenate", "conditions": "rat cerebral cortex homogenate 1:3000; 0.3 nanomolar 3H-NMS; 30° C., 45 minutes; read-out: Receptor Binding Tests IC50, Cortex", "protocol": "as §3, §4, §5"}, "[8]": {"biological_target": "T2, muscarinic receptors, heart (Rattus norvegicus, UniProt P10980)", "T2 construct": "The whole heart was cut up with scissors; from tissue; host or cells: whole heart of male Sprague-Dawley rats, homogenate", "T2 sequence (P10980 1-466)": "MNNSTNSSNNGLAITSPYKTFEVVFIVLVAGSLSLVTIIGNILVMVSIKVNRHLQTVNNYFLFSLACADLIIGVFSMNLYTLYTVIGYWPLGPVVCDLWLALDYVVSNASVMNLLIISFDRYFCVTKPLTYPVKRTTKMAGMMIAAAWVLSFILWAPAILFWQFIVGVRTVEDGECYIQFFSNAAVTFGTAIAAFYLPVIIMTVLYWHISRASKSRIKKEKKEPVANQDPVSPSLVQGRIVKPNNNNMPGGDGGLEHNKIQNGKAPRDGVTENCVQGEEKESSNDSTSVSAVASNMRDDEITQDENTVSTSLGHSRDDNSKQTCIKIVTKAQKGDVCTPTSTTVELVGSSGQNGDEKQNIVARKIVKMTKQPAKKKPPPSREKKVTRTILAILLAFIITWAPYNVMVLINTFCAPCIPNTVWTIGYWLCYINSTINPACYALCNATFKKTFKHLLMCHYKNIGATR", "experiment": "Receptor binding test in vitro, 3H-NMS displacement, whole heart homogenate", "conditions": "rat whole heart homogenate 1:400; 0.3 nanomolar 3H-NMS; 30° C., 45 minutes; read-out: Receptor Binding Tests IC50, Heart", "protocol": "as §3, §4, §5"}}}
{"smiles": "CN1[C@@H]2CC[C@H]1C[C@@H](OC(=O)C(CO)c1ccccc1)C2", "note": "(stereo partly drawn) [E, atropine, reference compound]", "values": [{"measurement": "ED50", "setting": "[1]", "result": 0.0457, "unit": "µmol/kg"}, {"measurement": "ED50", "setting": "[2]", "result": 0.02, "unit": "µmol/kg"}, {"measurement": "ED50", "setting": "[3]", "result": 0.0933, "unit": "µmol/kg"}, {"measurement": "ED50", "setting": "vagal bradycardia (M2)", "result": 0.0115, "unit": "µmol/kg"}]}
{"smiles": "CCN(CC)CC1CCCCN1CC(=O)N1c2ccccc2C(=O)Nc2cccnc21", "note": "(stereo not drawn) [C, 11-[[2-[(diethylamino)methyl]-1-piperidinyl]acetyl]-5,11-dihydro-6H-pyrido[2,3-b][1,4]benzodiazepin-6-one, reference compound]", "values": [{"measurement": "ED50", "setting": "vagal bradycardia (M2)", "result": 0.38, "unit": "µmol/kg"}, {"measurement": "ED50", "setting": "[4]", "result": 10, "unit": "µmol/kg"}]}
{"smiles": "CN1CCCC1CCNCC(=O)N1c2ccccc2C(=O)Nc2cccnc21", "note": "(stereo not drawn) [A, 5,11-dihydro-11-[[[2-(1-methyl-2-pyrrolidinyl)ethyl]amino]acetyl]-6H-pyrido[2,3-b][1,4]benzodiazepin-6-one]", "values": [{"measurement": "ED50", "setting": "[2]", "result": 0.0977, "unit": "µmol/kg"}, {"measurement": "ED50", "setting": "[3]", "result": 0.537, "unit": "µmol/kg"}, {"measurement": "ED50", "setting": "[5]", "result": 0.102, "unit": "µmol/kg"}]}
{"smiles": "CCN1CCCC1CN(C)CC(=O)N1c2ccccc2C(=O)Nc2cccnc21", "note": "(stereo not drawn) [B, 5,11-dihydro-11-[[[(1-ethyl-2-pyrrolidinyl)methyl]methylamino]acetyl]-6H-pyrido[2,3-b][1,4]benzodiazepin-6-one]", "values": [{"measurement": "ED50", "setting": "[1]", "result": 0.141, "unit": "µmol/kg"}, {"measurement": "ED50", "setting": "[2]", "result": 0.0457, "unit": "µmol/kg"}, {"measurement": "ED50", "setting": "[3]", "result": 1.17, "unit": "µmol/kg"}, {"measurement": "ED50", "setting": "[5]", "result": 0.0347, "unit": "µmol/kg"}, {"measurement": "ED50", "setting": "vagal bradycardia (M2)", "result": 0.00741, "unit": "µmol/kg"}, {"measurement": "IC50", "setting": "[6]", "result": 50, "unit": "nM"}, {"measurement": "ED50", "setting": "[4]", "result": 0.813, "unit": "µmol/kg"}, {"measurement": "IC50", "setting": "[7]", "result": 30, "unit": "nM"}, {"measurement": "IC50", "setting": "[8]", "result": 6, "unit": "nM"}]}
